Measurements: PMC11579512, “Deoxybouvardin-glucoside induces apoptosis in non-small cell lung cancer cells by targeting EGFR/MET and AKT signaling pathway” (EXCLI Journal, 2024)

Tests used:
[1] = tested on: cytochrome c (mitochondrial); test: Immunoblot mitochondrial cytochrome c in HCC827 and HCC827GR cells; assay type: cell-based, human; conditions: for cyto c (mitosol) protein Ratio: DBG 0 nM = 1.00
Protocol: Cells were lysed in RIPA buffer, and protein concentration was determined using a Bio-Rad DC Protein Assay kit (Bio-Rad, Hercules, CA, USA). Protein samples from the cell lysates were resolved by sodium dodecyl sulfate-polyacrylamide gel electrophoresis and then transferred onto polyvinylidene fluoride membranes. The membranes were blocked with 3 % or 5 % skim milk and then incubated at 4 °C overnight with the indicated primary antibodies, followed by the corresponding horseradish peroxidase-conjugated secondary antibodies at RT for 2 h. Protein bands were visualized using western blotting luminol reagent solution and ImageQuant LAS 500 (GE Healthcare, Uppsala, Sweden). The density of the bands was quantified using ImageJ software (NIH, Bethesda, MD, USA).
The cells were suspended in plasma membrane extraction buffer [250 mM sucrose, 10 mM HEPES (pH 8.0), 10 mM KCl, 1.5 mM MgCl2• 6H2O, 1 mM EGTA, 1 mM EDTA, 0.1 mM PMSF, 0.01 mg/ml aprotinin, and 0.01 mg/ml leupeptin], and 0.1 % digitonin was added for vortexing (1 min). The supernatant was collected as the cytosolic fraction. The pellet was resuspended in plasma membrane extraction buffer containing 0.5 % Triton X-100. The lysates were centrifuged at 13,000 rpm for 30 min to separate the mitochondrial fraction.

HCC827 cells = test: Annexin V/7-AAD apoptosis, HCC827; assay type: cell-based, human; set-up: Early apoptosis / Total apopt / Dead / Live: unit not given here; conditions: for apoptotic cells (annexin V+): 48 h, background 4.78 %; for Dead / Early apoptosis / Late apoptosis/Dead / Total apopt / Live: HCC827
Protocol: HaCaT cells were grown in DMEM, whereas HCC827 and HCC827GR cells were grown in RPMI 1640. All culture media were supplemented with FBS (10 %) and P/S (1 %), and the cells were grown at 37 °C in 5 % CO2.
Apoptosis was measured using a Muse™ Annexin V & Dead Cell Kit (MCH100105, Merck Millipore). The fluorescent signal was analyzed with a Muse™ Cell Analyzer.

In the case of `COc1ccc(C[C@H]2C(=O)N[C@@H](C)C(=O)N(C)[C@H]3Cc4ccc(cc4)Oc4cc(ccc4O[C@@H]4O[C@H](CO)[C@@H](O)[C@H](O)[C@H]4O)C[C@@H](C(=O)N[C@H](C)C(=O)N[C@@H](C)C(=O)N2C)N(C)C3=O)cc1` [DBG, deoxybouvardin glucoside], the “cyto c (mitosol) cyto c/COX4/actin (A)” value ([1]; HCC827, DBG 3 nM, DBG 0 nM 119.45) is reported as 66.38, the “cyto c (mitosol) protein Ratio” value ([1]; HCC827, DBG 3 nM) is reported as 0.56 and the “cyto c (mitosol) cyto c/COX4/actin (A)” value ([1]; HCC827, DBG 6 nM, DBG 0 nM 119.45) is reported as 25.00. For the same molecule, the “cyto c (mitosol) protein Ratio” value ([1]; HCC827, DBG 6 nM) was 0.21, the “cyto c (mitosol) cyto c/COX4/actin (A)” value ([1]; HCC827, DBG 12 nM, DBG 0 nM 119.45) was 23.24 and the “cyto c (mitosol) protein Ratio” value ([1]; HCC827, DBG 12 nM) was 0.19. The “cyto c (mitosol) cyto c/COX4/actin (A)” value ([1]; HCC827GR, DBG 3 nM, DBG 0 nM 168.86) was 137.25, the “cyto c (mitosol) protein Ratio” value ([1]; HCC827GR, DBG 3 nM) was 0.81 and the “cyto c (mitosol) cyto c/COX4/actin (A)” value ([1]; HCC827GR, DBG 6 nM, DBG 0 nM 168.86) was 47.89. For the same molecule, the “cyto c (mitosol) protein Ratio” value ([1]; HCC827GR, DBG 6 nM) was 0.28, the “cyto c (mitosol) cyto c/COX4/actin (A)” value ([1]; HCC827GR, DBG 12 nM, DBG 0 nM 168.86) was 7.39 and the “cyto c (mitosol) protein Ratio” value ([1]; HCC827GR, DBG 12 nM) was 0.0438. For the same molecule, the “apoptotic cells (annexin V+)” value (HCC827 cells; DBG 3 nM) was 9.60%, the “apoptotic cells (annexin V+)” value (HCC827 cells; DBG 6 nM) was 15.30% and the “apoptotic cells (annexin V+)” value (HCC827 cells; DBG 12 nM) was 44.90%. The Dead (HCC827 cells; DBG 3 nM, mean of 3 samples, untreated 1.21) was 1.72, the Early apoptosis (HCC827 cells; DBG 3 nM, mean of 3 samples, untreated 1.30) was 3.33 and the “Late apoptosis/Dead” value (HCC827 cells; DBG 3 nM, mean of 3 samples, untreated 3.48) was 6.27. The Total apopt (HCC827 cells; DBG 3 nM, mean of 3 samples, untreated 4.78) was 9.60, the Live (HCC827 cells; DBG 3 nM, mean of 3 samples, untreated 94.01) was 88.68 and the Dead (HCC827 cells; DBG 3 nM, replicate 1) was 1.90. For the same molecule, the Early apoptosis (HCC827 cells; DBG 3 nM, replicate 1) was 3.35, the “Late apoptosis/Dead” value (HCC827 cells; DBG 3 nM, replicate 1) was 5.90 and the Live (HCC827 cells; DBG 3 nM, replicate 1) was 88.85. The Total apopt (HCC827 cells; DBG 3 nM, replicate 1) was 9.25, the Dead (HCC827 cells; DBG 3 nM, replicate 2) was 1.75 and the Early apoptosis (HCC827 cells; DBG 3 nM, replicate 2) was 3.40. The “Late apoptosis/Dead” value (HCC827 cells; DBG 3 nM, replicate 2) was 5.90, the Live (HCC827 cells; DBG 3 nM, replicate 2) was 88.95 and the Total apopt (HCC827 cells; DBG 3 nM, replicate 2) was 9.30. The Dead (HCC827 cells; DBG 3 nM, replicate 3) was 1.50, the Early apoptosis (HCC827 cells; DBG 3 nM, replicate 3) was 3.25 and the “Late apoptosis/Dead” value (HCC827 cells; DBG 3 nM, replicate 3) was 7.00. It also gave a Live (HCC827 cells; DBG 3 nM, replicate 3) of 88.25, a Total apopt (HCC827 cells; DBG 3 nM, replicate 3) of 10.25 and a Dead (HCC827 cells; DBG 6 nM, mean of 3 samples, untreated 1.21) of 1.75. For the same molecule, the Early apoptosis (HCC827 cells; DBG 6 nM, mean of 3 samples, untreated 1.30) was 6.37, the “Late apoptosis/Dead” value (HCC827 cells; DBG 6 nM, mean of 3 samples, untreated 3.48) was 8.93 and the Total apopt (HCC827 cells; DBG 6 nM, mean of 3 samples, untreated 4.78) was 15.30. It also gave a Live (HCC827 cells; DBG 6 nM, mean of 3 samples, untreated 94.01) of 82.95, a Dead (HCC827 cells; DBG 6 nM, replicate 1) of 1.70 and an Early apoptosis (HCC827 cells; DBG 6 nM, replicate 1) of 6.40. For the same molecule, the “Late apoptosis/Dead” value (HCC827 cells; DBG 6 nM, replicate 1) was 9.25, the Live (HCC827 cells; DBG 6 nM, replicate 1) was 82.65 and the Total apopt (HCC827 cells; DBG 6 nM, replicate 1) was 15.65. The Dead (HCC827 cells; DBG 6 nM, replicate 2) was 1.90, the Early apoptosis (HCC827 cells; DBG 6 nM, replicate 2) was 6.75 and the “Late apoptosis/Dead” value (HCC827 cells; DBG 6 nM, replicate 2) was 8.15. The Live (HCC827 cells; DBG 6 nM, replicate 2) was 83.20, the Total apopt (HCC827 cells; DBG 6 nM, replicate 2) was 14.90 and the Dead (HCC827 cells; DBG 6 nM, replicate 3) was 1.65. The Early apoptosis (HCC827 cells; DBG 6 nM, replicate 3) was 5.95, the “Late apoptosis/Dead” value (HCC827 cells; DBG 6 nM, replicate 3) was 9.40 and the Live (HCC827 cells; DBG 6 nM, replicate 3) was 83.00. The Total apopt (HCC827 cells; DBG 6 nM, replicate 3) was 15.35, the Dead (HCC827 cells; DBG 12 nM, mean of 3 samples, untreated 1.21) was 4.72 and the Early apoptosis (HCC827 cells; DBG 12 nM, mean of 3 samples, untreated 1.30) was 19.42. The “Late apoptosis/Dead” value (HCC827 cells; DBG 12 nM, mean of 3 samples, untreated 3.48) was 25.48, the Total apopt (HCC827 cells; DBG 12 nM, mean of 3 samples, untreated 4.78) was 44.90 and the Live (HCC827 cells; DBG 12 nM, mean of 3 samples, untreated 94.01) was 50.38. The Dead (HCC827 cells; DBG 12 nM, replicate 1) was 4.65, the Early apoptosis (HCC827 cells; DBG 12 nM, replicate 1) was 19.00 and the “Late apoptosis/Dead” value (HCC827 cells; DBG 12 nM, replicate 1) was 25.05. For the same molecule, the Live (HCC827 cells; DBG 12 nM, replicate 1) was 51.30, the Total apopt (HCC827 cells; DBG 12 nM, replicate 1) was 44.05 and the Dead (HCC827 cells; DBG 12 nM, replicate 2) was 4.15. The Early apoptosis (HCC827 cells; DBG 12 nM, replicate 2) was 19.25, the “Late apoptosis/Dead” value (HCC827 cells; DBG 12 nM, replicate 2) was 25.30 and the Live (HCC827 cells; DBG 12 nM, replicate 2) was 51.30. It also gave a Total apopt (HCC827 cells; DBG 12 nM, replicate 2) of 44.55, a Dead (HCC827 cells; DBG 12 nM, replicate 3) of 5.35 and an Early apoptosis (HCC827 cells; DBG 12 nM, replicate 3) of 20.00. For the same molecule, the “Late apoptosis/Dead” value (HCC827 cells; DBG 12 nM, replicate 3) was 26.10, the Live (HCC827 cells; DBG 12 nM, replicate 3) was 48.55 and the Total apopt (HCC827 cells; DBG 12 nM, replicate 3) was 46.10.
